Data reported in ChEMBL document CHEMBL4627246, “Pyroglutamide-Based P2X7 Receptor Antagonists Targeting Inflammatory Bowel Disease” (J Med Chem, 2020).

Legend:
Type in all cases: cell-based
[1] = test system: SR; test: Cytotoxicity against human SR cells assessed as effect on cell growth at 10 uM incubated for 48 hrs by sulforhodamine B assay
[2] = test system: EKVX; test: Cytotoxicity against human EKVX cells assessed as effect on cell growth at 10 uM incubated for 48 hrs by sulforhodamine B assay
[3] = test system: K562; test: Cytotoxicity against human K562 cells assessed as effect on cell growth at 10 uM incubated for 48 hrs by sulforhodamine B assay; conditions: k562, 48 h
[4] = test system: NCI-H322M; test: Cytotoxicity against human NCI-H322M cells assessed as effect on cell growth at 10 uM incubated for 48 hrs by sulforhodamine B assay
[5] = test system: COLO 205; test: Cytotoxicity against human COLO205 cells assessed as effect on cell growth at 10 uM incubated for 48 hrs by sulforhodamine B assay; conditions: colo 205, 48 h
[6] = test system: HCC 2998; test: Cytotoxicity against human HCC2998 cells assessed as effect on cell growth at 10 uM incubated for 48 hrs by sulforhodamine B assay; conditions: hcc 2998, 48 h
[7] = test system: HCT-116; test: Cytotoxicity against human HCT116 cells assessed as effect on cell growth at 10 uM incubated for 48 hrs by sulforhodamine B assay; conditions: hct-116, 48 h
[8] = test system: KM12; test: Cytotoxicity against human KM12 cells assessed as effect on cell growth at 10 uM incubated for 48 hrs by sulforhodamine B assay; conditions: km12, 48 h
[9] = test system: SF-295; test: Cytotoxicity against human SF295 cells assessed as effect on cell growth at 10 uM incubated for 48 hrs by sulforhodamine B assay; conditions: sf-295, 48 h
[10] = test system: SNB-75; test: Cytotoxicity against human SNB75 cells assessed as effect on cell growth at 10 uM incubated for 48 hrs by sulforhodamine B assay; conditions: snb-75, 48 h
[11] = test system: Malme-3M; test: Cytotoxicity against human MALME-3M cells assessed as effect on cell growth at 10 uM incubated for 48 hrs by sulforhodamine B assay
[12] = test system: SK-MEL-5; test: Cytotoxicity against human SK-MEL-5 cells assessed as effect on cell growth at 10 uM incubated for 48 hrs by sulforhodamine B assay; conditions: sk-mel-5, 48 h
[13] = test system: UACC-257; test: Cytotoxicity against human UACC257 cells assessed as effect on cell growth at 10 uM incubated for 48 hrs by sulforhodamine B assay; conditions: uacc-257, 48 h
[14] = test system: OVCAR-4; test: Cytotoxicity against human OVCAR4 cells assessed as effect on cell growth at 10 uM incubated for 48 hrs by sulforhodamine B assay; conditions: ovcar-4, 48 h
[15] = test system: OVCAR-8; test: Cytotoxicity against human OVCAR8 cells assessed as effect on cell growth at 10 uM incubated for 48 hrs by sulforhodamine B assay; conditions: ovcar-8, 48 h
[16] = test system: NCI/ADR-RES; test: Cytotoxicity against human NCI/ADR-RES cells assessed as effect on cell growth at 10 uM incubated for 48 hrs by sulforhodamine B assay
[17] = test system: 786-0; test: Cytotoxicity against human 786-0 cells assessed as effect on cell growth at 10 uM incubated for 48 hrs by sulforhodamine B assay; conditions: 786-0, 48 h
[18] = test system: A498; test: Cytotoxicity against human A498 cells assessed as effect on cell growth at 10 uM incubated for 48 hrs by sulforhodamine B assay; conditions: a498, 48 h
[19] = test system: DU-145; test: Cytotoxicity against human DU145 cells assessed as effect on cell growth at 10 uM incubated for 48 hrs by sulforhodamine B assay; conditions: du-145, 48 h
[20] = test system: MDA-MB-468; test: Cytotoxicity against human MDA-MB-468 cells assessed as effect on cell growth at 10 uM incubated for 48 hrs by sulforhodamine B assay; conditions: mda-mb-468, 48 h

Measured: Activity

O=C(NCc1ccc(Cl)cc1Cl)[C@@H]1CCC(=O)N1c1ccccc1
Non-Toxic: all assays above

CN(Cc1ccccc1)C(=O)[C@@H]1CCC(=O)N1Cc1ccc(Cl)cc1Cl
Non-Toxic: all assays above

O=C1N[C@H](C(=O)NCc2ccc(Cl)cc2Cl)CO1
Non-Toxic: all assays above

O=C(NCc1ccc(Cl)cc1Cl)[C@@H]1CCC(=O)N1c1cscn1
Non-Toxic: all assays above

O=C(NCc1ccc(Cl)cc1Cl)[C@@H]1CCC(=O)N1c1cncs1
Non-Toxic: all assays above

CN(C)C(=O)[C@@H]1CCC(=O)N1
Non-Toxic: all assays above

O=C(NCc1ccc(Cl)cc1Cl)[C@@H]1CCC(=O)N1Cc1ccc(Cl)cc1
Non-Toxic: all assays above

O=C(NCc1ccc(Cl)cc1Cl)[C@@H]1CCC(=O)N1c1ccc(Cl)cc1
Non-Toxic: all assays above
